In ChEMBL document CHEMBL4043153, “Lead selection of antiparasitic compounds from a focused library of benzenesulfonyl derivatives of heterocycles” (Bioorg Med Chem Lett, 2017):

Columns and labels:
Assay type in all cases: functional
Leishmania donovani [1] = experiment: Antiparasitic activity against Leishmania donovani MHOM-ET-67/L82 axenic amastigotes assessed as growth inhibition at 0.8 ug/ml after 72 hrs by resazurin dye-based fluorometric analysis relative to control; conditions: MHOM-ET-67/L82, 72 h, read-out: GI
Leishmania donovani [2] = experiment: Antiparasitic activity against Leishmania donovani MHOM-ET-67/L82 axenic amastigotes assessed as growth inhibition at 4.8 ug/ml after 72 hrs by resazurin dye-based fluorometric analysis relative to control; conditions: MHOM-ET-67/L82, 72 h, read-out: GI
Trypanosoma cruzi [3] = experiment: Antiparasitic activity against Trypanosoma cruzi Tulahuen C4 intracellular amastigotes infected in rat L6 cells assessed as growth inhibition at 0.8 ug/ml after 96 hrs by CPRG/Nonidet reagent based photometric analysis relative to control; conditions: Tulahuen C4, L6, 96 h, read-out: GI
Trypanosoma cruzi [4] = experiment: Antiparasitic activity against Trypanosoma cruzi Tulahuen C4 intracellular amastigotes infected in rat L6 cells assessed as growth inhibition at 4.8 ug/ml after 96 hrs by CPRG/Nonidet reagent based photometric analysis relative to control; conditions: Tulahuen C4, L6, 96 h, read-out: GI
Plasmodium falciparum [5] = experiment: (§1) Antiparasitic activity against intraerythrocytic form of chloroquine/pyrimethamine-resistant Plasmodium falciparum K1 infected in human RBC assessed as growth inhibition at 0.8 ug/ml preincubated for 48 hrs followed by [3H]-hypoxanthine addition measured after 24 hrs by liquid scintillation counting analysis relative to control; conditions: read-out: GI
Plasmodium falciparum [6] = experiment: as §1, with “4.8” for “0.8”; conditions: read-out: GI
[7] = test system: Trypanosoma brucei rhodesiense; experiment: Antiparasitic activity against Trypanosoma brucei rhodesiense STIB 900 trypomastigote bloodstream form assessed as growth inhibition at 0.8 ug/ml after 72 hrs by resazurin dye-based fluorometric analysis relative to control; conditions: STIB 900, 72 h, read-out: GI
[8] = test system: Trypanosoma brucei rhodesiense; experiment: Antiparasitic activity against Trypanosoma brucei rhodesiense STIB 900 trypomastigote bloodstream form assessed as growth inhibition at 4.8 ug/ml after 72 hrs by resazurin dye-based fluorometric analysis relative to control; conditions: STIB 900, 72 h, read-out: GI

Structure (SMILES): Cc1cc(C)c(C)c(S(=O)(=O)n2nnc3ccccc32)c1C
- inhibition of growth at 0.8 µg/mL (Leishmania donovani [1]): 28.4%
- inhibition of growth at 4.8 µg/mL (Leishmania donovani [2]): 45.6%
- inhibition of growth at 0.8 µg/mL (Trypanosoma cruzi [3]): 0%
- inhibition of growth at 4.8 µg/mL (Trypanosoma cruzi [4]): 2.9%
- inhibition of growth at 0.8 µg/mL (Plasmodium falciparum [5]): 0%
- inhibition of growth at 4.8 µg/mL (Plasmodium falciparum [6]): 0.1%
- inhibition of growth at 0.8 µg/mL [7]: 0.7%
- inhibition of growth at 4.8 µg/mL [8]: 4.7%

Structure (SMILES): CC1Cc2ccccc2N1S(=O)(=O)c1ccccc1[N+](=O)[O-] (stereo not drawn)
- inhibition of growth at 0.8 µg/mL (Leishmania donovani [1]): 19.3%
- inhibition of growth at 4.8 µg/mL (Leishmania donovani [2]): 52.4%
- inhibition of growth at 0.8 µg/mL (Trypanosoma cruzi [3]): 0%
- inhibition of growth at 4.8 µg/mL (Trypanosoma cruzi [4]): 15.1%
- inhibition of growth at 0.8 µg/mL (Plasmodium falciparum [5]): 14.8%
- inhibition of growth at 4.8 µg/mL (Plasmodium falciparum [6]): 50.5%
- inhibition of growth at 0.8 µg/mL [7]: 6.3%
- inhibition of growth at 4.8 µg/mL [8]: 9.6%

Structure (SMILES): O=[N+]([O-])c1cccc(S(=O)(=O)n2ccc3ccccc32)c1
- inhibition of growth at 0.8 µg/mL (Leishmania donovani [1]): 11.7%
- inhibition of growth at 4.8 µg/mL (Leishmania donovani [2]): 59.3%
- inhibition of growth at 0.8 µg/mL (Trypanosoma cruzi [3]): 0%
- inhibition of growth at 4.8 µg/mL (Trypanosoma cruzi [4]): 40.5%
- inhibition of growth at 0.8 µg/mL (Plasmodium falciparum [5]): 8%
- inhibition of growth at 4.8 µg/mL (Plasmodium falciparum [6]): 68.8%
- inhibition of growth at 0.8 µg/mL [7]: 1.9%
- inhibition of growth at 4.8 µg/mL [8]: 3.9%

Structure (SMILES): O=S(=O)(c1ccc(Br)cc1)N1CCc2ccccc21
- inhibition of growth at 0.8 µg/mL (Leishmania donovani [1]): 17.9%
- inhibition of growth at 4.8 µg/mL (Leishmania donovani [2]): 77.7%
- inhibition of growth at 0.8 µg/mL (Trypanosoma cruzi [3]): 4.2%
- inhibition of growth at 4.8 µg/mL (Trypanosoma cruzi [4]): 28.1%
- inhibition of growth at 0.8 µg/mL (Plasmodium falciparum [5]): 9.8%
- inhibition of growth at 4.8 µg/mL (Plasmodium falciparum [6]): 63.5%
- inhibition of growth at 0.8 µg/mL [7]: 5.3%
- inhibition of growth at 4.8 µg/mL [8]: 0%

Structure (SMILES): CC(C)(C)c1ccc(S(=O)(=O)n2ccc3ccccc32)cc1
- inhibition of growth at 0.8 µg/mL (Leishmania donovani [1]): 27.3%
- inhibition of growth at 4.8 µg/mL (Leishmania donovani [2]): 92.2%
- inhibition of growth at 0.8 µg/mL (Trypanosoma cruzi [3]): 0%
- inhibition of growth at 4.8 µg/mL (Trypanosoma cruzi [4]): 0%
- inhibition of growth at 0.8 µg/mL (Plasmodium falciparum [5]): 13.9%
- inhibition of growth at 4.8 µg/mL (Plasmodium falciparum [6]): 92.3%
- inhibition of growth at 0.8 µg/mL [7]: 0%
- inhibition of growth at 4.8 µg/mL [8]: 0%

Structure (SMILES): O=S(=O)(c1ccc(Cl)cc1)N1CCc2ccccc21
- inhibition of growth at 0.8 µg/mL (Leishmania donovani [1]): 6.9%
- inhibition of growth at 4.8 µg/mL (Leishmania donovani [2]): 73.6%
- inhibition of growth at 0.8 µg/mL (Trypanosoma cruzi [3]): 0%
- inhibition of growth at 4.8 µg/mL (Trypanosoma cruzi [4]): 1.5%
- inhibition of growth at 0.8 µg/mL (Plasmodium falciparum [5]): 3.7%
- inhibition of growth at 4.8 µg/mL (Plasmodium falciparum [6]): 63.7%
- inhibition of growth at 0.8 µg/mL [7]: 0%
- inhibition of growth at 4.8 µg/mL [8]: 0%

Structure (SMILES): O=[N+]([O-])c1ccccc1S(=O)(=O)N1CCc2ccccc2C1
- inhibition of growth at 0.8 µg/mL (Leishmania donovani [1]): 17.8%
- inhibition of growth at 4.8 µg/mL (Leishmania donovani [2]): 57%
- inhibition of growth at 0.8 µg/mL (Trypanosoma cruzi [3]): 3.1%
- inhibition of growth at 4.8 µg/mL (Trypanosoma cruzi [4]): 27.5%
- inhibition of growth at 0.8 µg/mL (Plasmodium falciparum [5]): 0%
- inhibition of growth at 4.8 µg/mL (Plasmodium falciparum [6]): 19.8%
- inhibition of growth at 0.8 µg/mL [7]: 10.8%
- inhibition of growth at 4.8 µg/mL [8]: 6.9%

Structure (SMILES): O=S(=O)(c1ccc(C(F)(F)F)cc1)N1CCCc2ccccc21
- inhibition of growth at 0.8 µg/mL (Leishmania donovani [1]): 20.1%
- inhibition of growth at 4.8 µg/mL (Leishmania donovani [2]): 85%
- inhibition of growth at 0.8 µg/mL (Trypanosoma cruzi [3]): 0%
- inhibition of growth at 4.8 µg/mL (Trypanosoma cruzi [4]): 22.6%
- inhibition of growth at 0.8 µg/mL (Plasmodium falciparum [5]): 7.2%
- inhibition of growth at 4.8 µg/mL (Plasmodium falciparum [6]): 75.3%
- inhibition of growth at 0.8 µg/mL [7]: 7.2%
- inhibition of growth at 4.8 µg/mL [8]: 18.1%

Structure (SMILES): O=S(=O)(c1ccc(F)cc1)N1CCc2ccccc21
- inhibition of growth at 0.8 µg/mL (Leishmania donovani [1]): 11%
- inhibition of growth at 4.8 µg/mL (Leishmania donovani [2]): 62.7%
- inhibition of growth at 0.8 µg/mL (Trypanosoma cruzi [3]): 0%
- inhibition of growth at 4.8 µg/mL (Trypanosoma cruzi [4]): 0.2%
- inhibition of growth at 0.8 µg/mL (Plasmodium falciparum [5]): 1.5%
- inhibition of growth at 4.8 µg/mL (Plasmodium falciparum [6]): 28.2%
- inhibition of growth at 0.8 µg/mL [7]: 12.6%
- inhibition of growth at 4.8 µg/mL [8]: 19.2%

Structure (SMILES): O=S(=O)(c1ccc(C(F)(F)F)cc1)N1CCc2ccccc2C1
- inhibition of growth at 0.8 µg/mL (Leishmania donovani [1]): 40.8%
- inhibition of growth at 4.8 µg/mL (Leishmania donovani [2]): 58.3%
- inhibition of growth at 0.8 µg/mL (Trypanosoma cruzi [3]): 0%
- inhibition of growth at 4.8 µg/mL (Trypanosoma cruzi [4]): 27.3%
- inhibition of growth at 0.8 µg/mL (Plasmodium falciparum [5]): 0.6%
- inhibition of growth at 4.8 µg/mL (Plasmodium falciparum [6]): 22.7%
- inhibition of growth at 0.8 µg/mL [7]: 0.7%
- inhibition of growth at 4.8 µg/mL [8]: 5.8%

Structure (SMILES): O=S(=O)(c1ccc(Br)cc1)n1ccc2ccccc21
- inhibition of growth at 0.8 µg/mL (Leishmania donovani [1]): 11.5%
- inhibition of growth at 4.8 µg/mL (Leishmania donovani [2]): 48.1%
- inhibition of growth at 0.8 µg/mL (Trypanosoma cruzi [3]): 0%
- inhibition of growth at 4.8 µg/mL (Trypanosoma cruzi [4]): 0%
- inhibition of growth at 0.8 µg/mL (Plasmodium falciparum [5]): 0%
- inhibition of growth at 4.8 µg/mL (Plasmodium falciparum [6]): 45.9%
- inhibition of growth at 0.8 µg/mL [7]: 0%
- inhibition of growth at 4.8 µg/mL [8]: 0%
